Measurements taken from patent US8119694B2, “High concentration local anesthetic formulations” (priority 2008, dated 2012).

Assay: Compatibility study of drug at 40% w/w in solvent blends
Type: physicochemical
Settings: two week samples at accelerated conditions versus initial samples
Method: The solubility and compatibility of lidocaine and lidocaine HCl in solvents typically used in topical pharmaceutical products was assessed in order to direct the formulation development efforts.
Initially, the solubility of lidocaine and lidocaine hydrochloride was evaluated in single solvents with varying lipophilicity. […] Based on the single solvent data, a compatibility study was initiated to evaluate the chemical stability of the drug at a concentration of 40% w/w in a variety of solvent blends that would form the base of potential prototype gel or cream formulations.

CCN(CC)CC(=O)Nc1c(C)cccc1C [lidocaine]
chemical compatibility (potency) in solvent blends: absence of a drop in potency
